Entries after “also recorded” stand apart in the source; their conditions may differ. Where no end group is shown, it is not given here.
Assays:
[1] = target: T1, 70K N-terminal domain of FN (Homo sapiens, UniProt P02751); conditions: background statement; cited from earlier work
T1 construct: specifically to the 70K N-terminal domain of FN involved in fibrillogenesis

[2] = tested on: breast cancer; assay: Murine models of breast cancer; conditions: mouse, in vivo
[3] = tested on: UUO kidneys; assay: Unilateral Ureteral Obstruction (UUO) model of kidney fibrosis; assay type: in vivo, mouse; conditions: for decrease in CD45 staining (leukocyte infiltration) / decrease in collagens (picrosirius red birefringence): UUO kidney sections; for decrease of fibronectin deposition (immunohistochemistry): UUO kidneys, s.c. 0.3 mg per day, day 3 to day 9, vs saline; for qualitative H&E histology of UUO kidneys: compared to saline
From the text: Unilateral Ureteral Obstruction model. […] All efforts were made to minimize suffering. […] PEGylated peptide equivalent amounts were based on peptide concentration.
Thus, the right, contralateral, kidney of each mouse was utilized as a control to the left UUO-treated kidney. The data from two cohorts of UUO-treated mice were combined for this study composed of the following groups (n): saline (n=5), PEG (n=4), FUD (n=5), PEG-FUD (n=8) and PEG-mFUD (n=3).
Histology and immunostaining: Paraffin-embedded tissues were sectioned at 4 μm and stained with H&E and Picrosirius Red, and IHC for fibronectin and CD45 for leukocytes. […] Staining for fibronectin was carried out using a rabbit polyclonal antibody to mouse fibronectin (RamFN) which was described in the art. RamFN diluted at 1:5000 required prior proteinase K antigen retrieval and was developed with ImmPRESS Rabbit Ig HRP. Staining for leukocytes was carried out using the pan leukocyte antibody rat anti-mouse CD45 (Leukocyte Common antigen, Ly-5, BD Pharmingen, clone 30-F11) at 1:100 after citrate pH 6.0 antigen retrieval and developed with ImmPRESS rat Ig HRP. RamFN and CD45 staining was counter stained with hematoxylin to demarcate nuclei.
Stained tissue sections were imaged using the 20× objective on an upright brightfield Nikon Eclipse 600 microscope. This microscope was also equipped with polarizer capabilities utilized to assess the birefringence of the picrosirius red-stained collagen fibers. Quantitation of birefringence or DAB product following development of HRP stains was carried out using Image J (Sun Microsystems.Ink) from 6 images from each mouse section obtained at random within the central cortical area and excluding large blood vessels and the kidney capsule.

[4] = tested on: EDA-containing fibronectin; assay: Endogenous (cellular) fibronectin assembly assay, human proximal tubular epithelial cells (HK-2); assay type: cell-based; conditions: doses up to 500 nM; for IC50: endogenous EDA+-fibronectin, human proximal tubular epithelial cells, read-out: IC50 of fibronectin assembly inhibition
Chain of EDA-containing fibronectin (P02751 32-608 limits assumed): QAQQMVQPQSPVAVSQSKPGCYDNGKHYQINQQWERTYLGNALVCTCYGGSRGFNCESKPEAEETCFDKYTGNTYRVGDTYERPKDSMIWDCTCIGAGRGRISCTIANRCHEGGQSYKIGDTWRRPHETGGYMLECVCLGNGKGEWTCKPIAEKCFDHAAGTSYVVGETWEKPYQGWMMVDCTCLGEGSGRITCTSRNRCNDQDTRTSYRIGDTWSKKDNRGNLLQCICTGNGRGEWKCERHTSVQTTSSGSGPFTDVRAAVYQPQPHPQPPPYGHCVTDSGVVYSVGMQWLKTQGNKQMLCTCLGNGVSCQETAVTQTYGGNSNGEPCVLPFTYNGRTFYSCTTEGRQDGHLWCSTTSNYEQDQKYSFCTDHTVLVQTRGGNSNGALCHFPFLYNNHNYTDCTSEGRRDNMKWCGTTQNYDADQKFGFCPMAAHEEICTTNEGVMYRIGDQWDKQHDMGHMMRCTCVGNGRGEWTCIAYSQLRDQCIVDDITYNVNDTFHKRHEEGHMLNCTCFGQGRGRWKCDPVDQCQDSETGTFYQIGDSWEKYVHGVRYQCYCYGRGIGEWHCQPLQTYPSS
From the text: (§1) Endogenous (cellular) fibronectin assembly assay: This immunochemical assay measures the ECM incorporation of EDA-containing fibronectin synthesized by human fibroblasts and human proximal tubular epithelial cells. Human proximal epithelial cells, HK-2 cells, were obtained from ATCC (CRL-2190). The EDA+ fibronectin is a splice variant synthesized and secreted by a variety of cells mostly during embryonic development and during wound healing, ECM remodeling, or fibrotic conditions in the adult. Fibroblasts (AH1F) were cultured in DMEM (Gibco) containing 10% fetal calf serum, and human proximal tubular epithelial cells (HK-2) were cultured in keratinocyte serum free medium (KSFM, containing pituitary extract and rEGF, Invitrogen/Thermo Fisher). Both media also contained 2.5 mM glutamine, 100 IU/ml penicillin, and 100 μg/ml streptomycin. Confluent cells were trypsinized and resuspended in DMEM containing 2% FCS in DMEM for AH1F cells or KSFM for HK-2 cells, at densities that allow delivery of 60,000 AH1F or 20,000 HK-2 cells in 90 μl per well in black-walled, flat transparent bottom 96-well plates. Cells were incubated for 2 h at 37° C. with 5% CO2 and checked microscopically for spreading and confluence. Peptides were then added in 10 μl volumes at 10-fold the desired final concentration. Cell monolayers in microplates were incubated overnight in a humidified 37° C., 5% CO2 chamber. After approximately 22 h, 10 μl of AlamarBlue® was added to the cell monolayers and incubated at 37° C. for 2 h to assess cell viability. Fluorescence of AlamarBlue® was read at 555 nm excitation and 585 nm emission. Microplates were washed twice with HBSS containing Ca^2+, Mg^2+ and 50 μl/well of 4% paraformaldehyde (PFA) in PBS was then added for 10 min at room temperature. […] Similar to the measurement of exogenous A488-FN fluorescence, A488-EDA fluorescence was read using microplate reader equipped with bottom-readout capabilities at 485 nm excitation and 525 nm emission. Fluorescence of wells to which A488-IgG was added, i.e., background green fluorescence from non-specific IgG binding and from the cell monolayer was subtracted from fluorescence values of wells incubated with A488-EDA. Data is presented for fibronectin fibrillogenesis or cell viability as percent of fluorescence values (AlexaFluor® 488 fluorescence or AlamarBlue®, respectively) for wells with no peptides.
(§2) To determine whether PEG-FUD retained its ability to inhibit fibronectin fibrillogenesis, PEG-FUD and FUD were compared in cell-based fibronectin matrix assembly assays. The ability of PEG-FUD to inhibit the incorporation of exogenous fibronectin derived from plasma and also of fibronectin endogenously produced by the cultured cells was measured, since fibrosis is likely to contain fibronectin from both sources. […]

[5] = tested on: EDA-containing fibronectin; assay: Endogenous (cellular) fibronectin assembly assay, human fibroblasts (AH1F); assay type: cell-based; conditions: doses up to 500 nM; for IC50: endogenous EDA+-fibronectin, human fibroblasts, read-out: IC50 of fibronectin assembly inhibition
From the text: as §1, §2

[6] = tested on: UUO kidneys; assay: Unilateral Ureteral Obstruction (UUO) model of kidney fibrosis; assay type: in vivo, mouse; conditions: compared to saline-treated UUOs

T1 sequence (P02751 32-609 limits assumed): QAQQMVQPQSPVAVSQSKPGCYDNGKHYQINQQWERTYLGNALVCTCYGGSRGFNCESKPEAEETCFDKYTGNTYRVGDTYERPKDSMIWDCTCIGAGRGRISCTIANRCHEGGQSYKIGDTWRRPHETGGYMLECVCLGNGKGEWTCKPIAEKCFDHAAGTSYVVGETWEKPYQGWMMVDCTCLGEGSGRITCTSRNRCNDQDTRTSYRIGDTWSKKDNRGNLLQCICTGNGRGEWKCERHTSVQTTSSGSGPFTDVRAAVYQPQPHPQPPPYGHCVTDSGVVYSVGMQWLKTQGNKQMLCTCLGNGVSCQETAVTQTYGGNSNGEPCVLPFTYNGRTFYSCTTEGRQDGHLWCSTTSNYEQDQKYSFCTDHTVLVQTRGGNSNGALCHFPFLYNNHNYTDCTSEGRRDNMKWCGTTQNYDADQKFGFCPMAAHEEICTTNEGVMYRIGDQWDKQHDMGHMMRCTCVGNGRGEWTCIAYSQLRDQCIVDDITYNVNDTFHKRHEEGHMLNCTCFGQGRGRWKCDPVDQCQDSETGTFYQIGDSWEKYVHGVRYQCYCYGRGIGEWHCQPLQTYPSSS

Substance | binding affinity [1] | effect on tumor volume [2] | decrease in CD45 staining (leukocyte infiltration) [3] | decrease in collagens (picrosirius red birefringence) [3] | decrease of fibronectin deposition (immunohistochemistry) [3] [%] | qualitative H&E histology of UUO kidneys [3] | inhibition of fibronectin assembly by proximal tubular epithelial cells [4] [%] | IC50 [4] [nM] | inhibition of assembly of cellular fibronectin by fibroblasts [5] [%] | IC50 [5] [nM] | decrease of fibronectin in ECM fractions (immunoblot, normalized to H3) [6]
FUD: 49 amino acid FUD peptide, SEQ ID NO: 1, recombinantly expressed, His-tag removed; inhibitor of fibronectin fibrillogenesis (KDQSPLAGESGETEYITEVYGNQQNPVDIDKKLPNETGFSGNMVETEDT; human) [reference compound] | nanomolar affinity | inhibit tumor volume | approximately 50% | about 50% | 40 | greater eosinophilic staining | 50 | ~30 | 70 | ~30 | approximately 60%
PEG-FUD: PEGylated FUD prepared as in Example 1, PEG size not stated; approximately 27 kDa by mass spectrometry, likely the 20 kDa conjugate (KDQSPLAGESGETEYITEVYGNQQNPVDIDKKLPNETGFSGNMVETEDT; not fully specified (N-terminus); also: PEG size not given here) |  | inhibit tumor volume | approximately 50% | about 50% | 70 | greater eosinophilic staining; also recorded: clearer tubular preservation and vascularized glomeruli | 50 | ~30 | 70 | ~30 | approximately 80%

From US10828372B2, “Compositions and methods for the inhibition of fibrosis” (WISCONSIN ALUMNI RESEARCH FOUNDATION, priority 2017, dated 2020)
